From article PMC7497630, “Coibamide A Targets Sec61 to Prevent Biogenesis of Secretory and Membrane Proteins” (ACS Chemical Biology, 2020)
Bridge positions count the residues as written; N and C are the ends. Square brackets hold non-standard residues; d marks the D form. Peptide text beside a SMILES is read from it. * marks the point of attachment. Phe(4-CF3-diazirinyl) = N[C@@H](Cc1ccc(C2(C(F)(F)F)N=N2)cc1)C(=O)O; NMe2Val = CC(C)[C@@H](C(=O)*)N(C)C; NMeI = CC[C@H](C)[C@H](NC)C(=O)O; NMeT = CN[C@H](C(=O)O)[C@@H](C)O; NMeL = CN[C@@H](CC(C)C)C(=O)O; NMePra = C#CC[C@H](NC)C(=O)O; dHiv = CC(C)[C@@H](O)C(=O)O; NMeS = CN[C@@H](CO)C(=O)O; Pra = C#CC[C@H](N)C(=O)O; dNMeA = CN[C@H](C)C(=O)O

What was measured:
[1] = biological target: Sec61α in U87-MG glioblastoma cells (Homo sapiens, UniProt P61619); test: Cellular thermal shift assay; format: cell-based; conditions: intact U87-MG cells
HCT116 cells = test: Cell viability, Alamar Blue assay; format: cell-based, human; conditions: HCT116, 72 h, 0.1% DMSO (Figure 1D), read-out: IC50
Procedure: Figure 1 Cytotoxicity of synthetic and Pra-containing coibamides. (A) Structure of CbA. (B) Human MDA-MB-231 breast cancer cells were treated with increasing concentrations of synthetic CbA or vehicle (0.1% DMSO) and cell viability assessed at 72 h by an MTS end-point assay. (C) Structure of Photo-CbA. (D) Human HCT116 cells were treated with increasing concentrations of synthetic or photo-CbA in 0.1% DMSO, and cell viability assessed at 72 h by Alamar Blue assay. TEXT PRINTED IN THE PICTURE: (B) CbA: MDA-MB-231 cell line: IC50(nM): 1.6 | (D) CbA: HCT 116 cell line: IC50(nM): 29.2 | (D) Photo-CbA: HCT 116 cell line: IC50(nM): 6.5
Figure 5 CbA mode of inhibition is specific compared to known Sec61 inhibitors. (A) Cell viability was measured by Alamar Blue assay (mean ± SD, n = 4, all cell lines assayed simultaneously) for HCT-116 cell lines isolated on the basis of CbA resistance in the presence of concentration series of indicated compounds. (B) Cell viability was measured by Alamar Blue assay (mean ± SD, n = 4, all cell lines assayed simultaneously) for HEK293FRT cells stably expressing Sec61α mutants in the presence of concentration series of indicated compounds. (C) Comparison of published NCI60 data for CbA,[3] AprA,[11] and IpoF.[33] The heat map was derived by plotting each GI50 value divided by the median GI50 for that compound. X indicates a cell line that was not tested. Closed arrowhead indicates cell lines with most notable differences across the three compounds. […]
A431, HEK293T, and HEK293FRT cells were cultured in DMEM supplemented with 10% FBS. […] Viability was estimated by the addition of Alamar Blue (Life Technologies) and measuring fluorescence after a further 4 h. […]

[2] = tested on: A549 human lung adenocarcinoma cells; conditions: 72 h

Sec61α in U87-MG glioblastoma cells, sequence (P61619 whole entry): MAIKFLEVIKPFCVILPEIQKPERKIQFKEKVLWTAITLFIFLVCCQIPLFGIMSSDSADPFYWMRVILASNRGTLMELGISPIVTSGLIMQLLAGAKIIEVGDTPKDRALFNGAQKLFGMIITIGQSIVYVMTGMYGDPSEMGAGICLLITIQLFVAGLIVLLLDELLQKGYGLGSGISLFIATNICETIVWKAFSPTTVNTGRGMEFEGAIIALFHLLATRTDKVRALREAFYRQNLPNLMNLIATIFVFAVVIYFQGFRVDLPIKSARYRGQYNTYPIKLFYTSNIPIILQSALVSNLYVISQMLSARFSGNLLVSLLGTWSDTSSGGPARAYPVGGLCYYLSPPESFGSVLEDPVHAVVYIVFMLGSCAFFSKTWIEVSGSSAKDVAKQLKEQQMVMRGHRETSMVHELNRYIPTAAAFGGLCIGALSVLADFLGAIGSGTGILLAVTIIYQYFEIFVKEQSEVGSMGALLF
Sec61α in U87-MG glioblastoma cells, sequence (P60468 2-96 partner limits assumed): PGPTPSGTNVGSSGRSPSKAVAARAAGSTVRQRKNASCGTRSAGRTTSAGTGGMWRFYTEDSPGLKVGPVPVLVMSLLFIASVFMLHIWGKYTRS
Sec61α in U87-MG glioblastoma cells, sequence (P60059 whole entry partner): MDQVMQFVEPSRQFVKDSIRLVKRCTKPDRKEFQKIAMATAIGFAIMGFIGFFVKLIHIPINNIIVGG

SMILES | IC50 [2] | further results
NCC(=O)Nc1ccc(-n2nc(C(F)(F)F)cc2-c2ccc3c(ccc4ccccc43)c2)cc1 [OSU-03012] |  | Sec61α detection at 60–66 °C (melting curve) ([1]; 45 to 72 °C for 3 min, 3 μM OSU-03012, 1 h): relatively weak immunoreactivity; stabilization of Sec61α, isothermal dose–response ([1]; 51 °C for 3 min, OSU-03012 0.03 nM to 10 μM): no apparent stabilization
C#CC[C@@H](C(=O)N(C)[C@@H](CC(C)C)C(=O)N(C)[C@@H]1C(=O)N(C)[C@@H](COC)C(=O)N(C)[C@@H]([C@@H](C)CC)C(=O)N[C@@H](C)C(=O)N(C)[C@@H](CC(C)C)C(=O)N[C@@H](Cc2ccc(C3(C(F)(F)F)N=N3)cc2)C(=O)N(C)[C@H](C)C(=O)O[C@@H]1C)N(C)C(=O)[C@H](OC(=O)[C@H](C(C)C)N(C)C)C(C)C [Photo-CbA] (NMe2Val-[dHiv][NMePra][NMeL][NMeT][NMeS](Me)[NMeI]A[NMeL][Phe(4-CF3-diazirinyl)][dNMeA]; ester 4-C) |  | IC50 (HCT116 cells): 6.5 nM
C#CC[C@@H](C(=O)N(C)[C@@H](CC(C)C)C(=O)N(C)[C@@H]1C(=O)N(C)[C@@H](COC)C(=O)N(C)[C@@H]([C@@H](C)CC)C(=O)N[C@@H](C)C(=O)N(C)[C@@H](CC(C)C)C(=O)N[C@@H](Cc2ccc(OC)cc2)C(=O)N(C)[C@H](C)C(=O)O[C@@H]1C)N(C)C(=O)[C@H](OC(=O)[C@H](C(C)C)N(C)C)C(C)C [R3 = propargyl] (NMe2Val-[dHiv][NMePra][NMeL][NMeT][NMeS](Me)[NMeI]A[NMeL]Y(Me)[dNMeA]; ester 4-C) | 1.7 ± 0.3 nM | 
C#CC[C@@H](C(=O)N(C)[C@@H]1C(=O)N(C)[C@@H](COC)C(=O)N(C)[C@@H]([C@@H](C)CC)C(=O)N[C@@H](C)C(=O)N(C)[C@@H](CC(C)C)C(=O)N[C@@H](Cc2ccc(OC)cc2)C(=O)N(C)[C@H](C)C(=O)O[C@@H]1C)N(C)C(=O)[C@H](COC)N(C)C(=O)[C@H](OC(=O)[C@H](C(C)C)N(C)C)C(C)C [R4 = propargyl] (NMe2Val-[dHiv][NMeS](Me)[NMePra][NMeT][NMeS](Me)[NMeI]A[NMeL]Y(Me)[dNMeA]; ester 4-C) | 3.7 ± 0.5 nM | 
C#CC[C@H]1C(=O)N(C)[C@@H]([C@@H](C)CC)C(=O)N[C@@H](C)C(=O)N(C)[C@@H](CC(C)C)C(=O)N[C@@H](Cc2ccc(OC)cc2)C(=O)N(C)[C@H](C)C(=O)O[C@H](C)[C@H](N(C)C(=O)[C@H](CC(C)C)N(C)C(=O)[C@H](COC)N(C)C(=O)[C@H](OC(=O)[C@H](C(C)C)N(C)C)C(C)C)C(=O)N1C [R6 = propargyl] (NMe2Val-[dHiv][NMeS](Me)[NMeL][NMeT][NMePra][NMeI]A[NMeL]Y(Me)[dNMeA]; ester 4-C) | 2 ± 0.9 nM | 
C#CC[C@H]1C(=O)N[C@@H](C)C(=O)N(C)[C@@H](CC(C)C)C(=O)N[C@@H](Cc2ccc(OC)cc2)C(=O)N(C)[C@H](C)C(=O)O[C@H](C)[C@H](N(C)C(=O)[C@H](CC(C)C)N(C)C(=O)[C@H](COC)N(C)C(=O)[C@H](OC(=O)[C@H](C(C)C)N(C)C)C(C)C)C(=O)N(C)[C@@H](COC)C(=O)N1C [R7 = propargyl] (NMe2Val-[dHiv][NMeS](Me)[NMeL][NMeT][NMeS](Me)[NMePra]A[NMeL]Y(Me)[dNMeA]; ester 4-C) | 9.3 ± 3.4 nM | 
C#CC[C@@H]1NC(=O)[C@H]([C@@H](C)CC)N(C)C(=O)[C@H](COC)N(C)C(=O)[C@@H](N(C)C(=O)[C@H](CC(C)C)N(C)C(=O)[C@H](COC)N(C)C(=O)[C@H](OC(=O)[C@H](C(C)C)N(C)C)C(C)C)[C@@H](C)OC(=O)[C@@H](C)N(C)C(=O)[C@H](Cc2ccc(OC)cc2)NC(=O)[C@H](CC(C)C)N(C)C1=O [R8 = propargyl] (NMe2Val-[dHiv][NMeS](Me)[NMeL][NMeT][NMeS](Me)[NMeI][Pra][NMeL]Y(Me)[dNMeA]; ester 4-C) | 66 ± 15 nM | 
C#CC[C@H]1C(=O)N[C@@H](Cc2ccc(OC)cc2)C(=O)N(C)[C@H](C)C(=O)O[C@H](C)[C@H](N(C)C(=O)[C@H](CC(C)C)N(C)C(=O)[C@H](COC)N(C)C(=O)[C@H](OC(=O)[C@H](C(C)C)N(C)C)C(C)C)C(=O)N(C)[C@@H](COC)C(=O)N(C)[C@@H]([C@@H](C)CC)C(=O)N[C@@H](C)C(=O)N1C [R9 = propargyl] (NMe2Val-[dHiv][NMeS](Me)[NMeL][NMeT][NMeS](Me)[NMeI]A[NMePra]Y(Me)[dNMeA]; ester 4-C) | 19 ± 7.6 nM | 
